From patent publication US8735432B2, “N-(Heteroaryl)-1-heteroarylalky1-1H-indole-2-carboxamide derivatives, preparation and therapeutic use thereof” (Sanofi, priority 2005, dated 2014) come the findings set out here.

The target of series [1] is T1, TRPV1 receptor (Rattus norvegicus, UniProt O35433).
T1 construct: The neurons of the DRG naturally express the TRPV1 receptor; endogenous in cells; host or cells: primary culture of newborn rat dorsal root ganglion neurons
The series is described as follows: Inhibition of the current induced with capsaicin on rat DRGs (whole-cell patch-clamp). The format is cell-based. To be noted: DRG neuron; compound at 3 nM; inhibition of control capsaicin response (300 nM); newborn rat DRG neurons; read-out: % inhibition as a DRG patch. On the procedure:
Test of Inhibition of the Current Induced with Capsaicin on Rat DRGs
Primary Culture of Rat Dorsal Root Ganglion (DRG) Cells:
The neurons of the DRG naturally express the TRPV1 receptor.
The primary cultures of newborn rat DRGs are prepared using 1-day-old rats. Briefly, after dissection, the ganglions are trypsinized and the cells dissociated by mechanical trituration. The cells are resuspended in an Eagle basal culture medium containing 10% fetal calf serum, 25 mM KCl, 2 mM glutamine, 100 μg/ml gentamicin and 50 ng/ml of NGF, and then deposited on glass slides coated with laminin (0.25×10^6 cells per slide), which are then placed in Corning 12-well dishes. The cells are incubated at 37° C. in a humidified atmosphere containing 5% CO2 and 95% air. […]
The measuring chambers (volume 800 μl) containing the cell preparation are placed on the platform of an inverted microscope (Olympus IMT2) equipped with Hoffman optics (Modulation Contrast, New York) and observed at a magnification of 400×. […] The overall currents (membrane potential set at −60 mV) are recorded with an Axopatch 1D amplifier (Axon Instruments, Foster City, Calif.), connected to a PC running the Pclamp8 software (Axon Instrument). The current plots are recorded on paper and simultaneously digitized (sampling frequency 15 to 25 Hz) and acquired on the hard drive of the PC. […]
(In general: The patch-clamp technique gives a direct electrical read-out from membranes.)

The target in series [2] is T2, TRPV1 receptors (Mus musculus, UniProt Q704Y3).
T2 construct: from tissue; host or cells: living mouse, cornea (C fibres)
T2 sequence (Q704Y3 whole entry): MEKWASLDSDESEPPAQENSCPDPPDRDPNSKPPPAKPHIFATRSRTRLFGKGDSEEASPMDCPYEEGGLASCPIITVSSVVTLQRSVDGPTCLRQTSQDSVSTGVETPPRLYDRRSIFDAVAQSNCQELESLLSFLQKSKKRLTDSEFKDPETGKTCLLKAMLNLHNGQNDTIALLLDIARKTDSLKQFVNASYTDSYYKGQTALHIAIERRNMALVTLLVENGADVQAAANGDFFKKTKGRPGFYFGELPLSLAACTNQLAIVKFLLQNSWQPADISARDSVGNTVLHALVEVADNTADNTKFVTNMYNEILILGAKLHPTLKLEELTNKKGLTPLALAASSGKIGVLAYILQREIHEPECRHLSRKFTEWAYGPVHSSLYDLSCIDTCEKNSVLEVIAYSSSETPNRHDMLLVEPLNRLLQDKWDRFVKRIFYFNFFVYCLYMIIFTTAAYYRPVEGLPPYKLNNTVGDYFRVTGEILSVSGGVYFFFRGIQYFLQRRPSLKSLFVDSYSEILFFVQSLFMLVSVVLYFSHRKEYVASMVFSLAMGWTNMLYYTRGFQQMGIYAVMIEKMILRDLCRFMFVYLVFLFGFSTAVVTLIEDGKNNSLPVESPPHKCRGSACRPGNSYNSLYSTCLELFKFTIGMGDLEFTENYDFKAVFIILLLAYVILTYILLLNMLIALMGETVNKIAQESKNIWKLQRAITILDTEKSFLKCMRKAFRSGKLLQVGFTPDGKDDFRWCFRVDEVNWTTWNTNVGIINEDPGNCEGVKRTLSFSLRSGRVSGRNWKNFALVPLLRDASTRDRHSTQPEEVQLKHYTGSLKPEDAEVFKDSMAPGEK
Kind of series: Test of mouse corneal irritation (capsaicin ocular instillation). To be noted: percentage of protection, pretreatment time t = 1 h, capsaicin 2 μl of 160 μM in the eye. Type of series: in vivo. On the procedure: Test of Mouse Corneal Irritation
The irritant nature of capsaicin is readily assessed on the cornea since this organ is one of the organs most densely innervated with C fibres. In this context, from preliminary experiments, the application of a very small amount of capsaicin (2 μl at a concentration of 160 μM) to the surface of the cornea of an animal leads to a certain number of stereotypic behavioral traits associated with irritation, which are easy to detect. Among these, the following are noted: blinking of the eye, rubbing of the instilled eye with the ipsilateral front paw, rubbing of the face with both front paws, scratching of the ipsilateral face with the hind paw. […] This aspect is moreover also normal. […]
In practice, the test product is administered orally and, with a delay (pretreatment time: t) that depends on the pharmacokinetic data, the animal receives an ocular instillation of 2 μl of a 160 μM capsaicin solution prepared as indicated above. During a 2-minute observation following the instillation, the number of times the instilled eye is rubbed with the ipsilateral front paw is recorded.
For a given animal, the percentage of protection is calculated as follows: P=100−((number of scratching actions observed/mean number of scratching actions for the group treated with the solvent)×100) […]

Usually inhibition stands for the share of the control response that was lost under treatment. For orientation: melting point means the temperature, or range, at which the solid turns liquid.

T1 sequence (O35433 whole entry): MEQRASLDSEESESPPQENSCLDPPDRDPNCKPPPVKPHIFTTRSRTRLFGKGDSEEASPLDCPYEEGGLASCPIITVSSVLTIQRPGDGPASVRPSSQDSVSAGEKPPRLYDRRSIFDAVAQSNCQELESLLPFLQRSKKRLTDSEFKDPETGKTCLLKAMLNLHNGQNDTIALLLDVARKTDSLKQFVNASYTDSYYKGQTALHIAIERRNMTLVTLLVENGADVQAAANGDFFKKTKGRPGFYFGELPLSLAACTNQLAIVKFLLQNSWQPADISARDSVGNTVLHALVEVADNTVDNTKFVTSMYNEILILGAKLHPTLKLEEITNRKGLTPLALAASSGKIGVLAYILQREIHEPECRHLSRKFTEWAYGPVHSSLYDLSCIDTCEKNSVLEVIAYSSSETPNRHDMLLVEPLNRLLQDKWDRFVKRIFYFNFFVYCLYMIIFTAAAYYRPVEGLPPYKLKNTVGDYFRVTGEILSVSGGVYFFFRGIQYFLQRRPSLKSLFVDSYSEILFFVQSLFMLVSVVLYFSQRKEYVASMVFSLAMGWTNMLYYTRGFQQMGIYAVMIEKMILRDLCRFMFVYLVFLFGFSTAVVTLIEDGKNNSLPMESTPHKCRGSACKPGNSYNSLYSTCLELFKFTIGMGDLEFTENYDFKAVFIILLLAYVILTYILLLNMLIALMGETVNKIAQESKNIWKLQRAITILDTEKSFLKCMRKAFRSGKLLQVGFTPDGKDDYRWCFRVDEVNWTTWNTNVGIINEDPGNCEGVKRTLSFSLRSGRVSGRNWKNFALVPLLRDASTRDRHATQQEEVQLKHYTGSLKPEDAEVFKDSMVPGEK

In the case of `Cc1nc2cc(NC(=O)c3cc4cc(C(C)(C)C)ccc4n3Cc3ccncc3)ccc2n1C.Cl.Cl` [Compound 6, N-(1,2-Dimethyl-1H-benzimidazol-5-yl)-5-t-butyl-1-[(pyrid-4-yl)methyl]-1H-indole-2-carboxamide hydrochloride (1:2)], in series [1], the inhibition at 0.003 µM was 80%. The “% P - (t) at 1 mg/kg (po)” value in series [2] was 24% - (1 h).

Consider `Cl.Cn1ccc2cc(NC(=O)c3cc4cc(F)ccc4n3Cc3ccncc3)ccc21` [Compound 3, N-(1-Methyl-1H-indol-5-yl)-5-fluoro-1-[(pyrid-4-yl)methyl]-1H-indole-2-carboxamide hydrochloride (1:1)], for which the “% P - (t) at 1 mg/kg (po)” value in series [2] is on record as 44% - (1 h).

As to `Cc1cnc(Cn2c(C(=O)Nc3ccc4c(c3)nc(C)n4C)cc3cc(F)ccc32)c(C)n1`, the melting point was 266 to 269 °C.

The molecule `Cc1cnc(C)c(Cn2c(C(=O)Nc3ccc4c(c3)nc(C)n4C)cc3cc(F)ccc32)n1` came in with a melting point of 269 to 275 °C.

Molecule `Cc1ncc(Cn2c(C(=O)Nc3ccc4c(c3)nc(C)n4C)cc3cc(F)ccc32)nc1C` had a melting point of 226 to 228 °C.
